The numbers were not newly measured in patent publication US11793840B2, “Nano-armored single cell product for treating Parkinson's disease through bacteria and a preparation method thereof” (Tangyi Holdings(Shenzhen) Limited, priority 2021, dated 2023), which cites them from elsewhere.

As for `NCCCC(=O)O` [GABA, Gamma-aminobutyric acid], the “in-vivo terminal elimination half-life” value (in vivo) was 25.1 min. For the same compound, under “oral administration of GABA”, the oral bioavailability is reported as 9.81%.
